From patent US6835382B2, “Ii peptide therapeutics to enhance antigen presentation” (University of Massachusetts, priority 1996, dated 2004)
Non-standard residues stand in square brackets, D forms with d. Cit = NC(=O)NCCC[C@H](N)C(=O)O; Orn = NCCC[C@H](N)C(=O)O

Tests used:
[1] = tested on: murine E^k MHC class II allele; assay: simultaneous assay, E^k allele (CH27 APC, TPc9.1 T hybridoma, THMCC82-103 or PGCC81-104); type: cell-based; settings: for Times Baseline Response, Ek: Table 3, values reduced relative to E^d by a factor of 10
Protocol: (§1) Examples 1-4 (Tables 1-18) will be briefly considered in order to establish the concept of tolerance discussed above. These examples describe experimental results observed in the so-called “simultaneous” assay. In the simultaneous assay four principle components are cultured together for a 24 hour period. The components of this culture, which are added simultaneously, are: (a) an antigenic peptide characterized by the ability to bind specifically into the antigenic peptide binding groove of an MHC class II molecule, (b) mitomycin C-treated, MHC class II-positive antigen presenting cells (APC) bearing the MHC class II allele required for binding of the specific antigenic peptide, and presentation of the specific antigenic peptide to the antigenic peptide-specific T cell hybridoma, (c) an effector compound of the present invention, and (d) an MHC class II allele-restricted T cell hybridoma specific for the antigenic peptide and the MHC class II allele restricting its presentation. Following incubation of this primary culture, an aliquot of its supernatant is transferred into a second culture well for incubation with an interleukin-dependent lymphoblastoid cell line. The degree of stimulation of that second, indicator cell by the interleukins which had been released from the activated T cell hybridoma in the primary culture is measured by quantitating tritiated thymidine deoxyribose {[^3H]TdR} uptake into the DNA of the HT-2 indicator cells of that second culture.
(§2) In the “simultaneous assay” the four components of the assay are cultured together for a 24 h period. The components of this primary culture, added at the same time or simultaneously, are: (a) the antigenic peptide, (b) mitomycin C-treated, MHC class II-positive antigen presenting cells (APC) with the MHC class II allele required for binding of the specific antigenic peptide and its presentation to the antigenic peptide-specific T cell hybridoma, (c) an AE101 series effector peptide, and (d) MHC class II allele-restricted T cell hybridoma specific for the antigenic peptide and the MHC class II allele restricting its presentation. At the end of the incubation of this primary culture, an aliquot of its supernatant is transferred into a second culture well for incubation with an interleukin-dependent lymphoblastoid cell line. The degree of stimulation of that second, indicator cell by the interleukins which had been released from the activated T cell hybridoma in the primary culture is measured by quantitating tritiated thymidine deoxyribose {[^3H]TdR} uptake into the DNA of the HT-2 indicator cells of that second culture.
(§3) For these various assays, the following antigenic peptides were used: HEL11-25, hen egg lysozyme 11-25, AMKRHGLDNYRGYSL(A^d) (SEQ ID NO:5); HEL46-61, hen egg lysozyme 46-61, NTDGSTDYGILQINSR(Ak) (SEQ ID NO:6); HEL106-116, hen egg lysozyme 106-116, NAWVAWRNRCK (E^d) (SEQ ID NO:7); PGCC81-104, pigeon cytochrome c 81-104, […] (Ek) (SEQ ID NO:8), and THMCC82-103, tobacco hornworm moth cytochrome c 82-103, […] (Ek) (SEQ ID NO:9). AE101 series peptides were obtained from commercial sources. In general, the purity and composition of each peptide was confirmed by HPLC separation and mass spectrometry. The native protein antigens were HEL, hen egg lysozyme, and PGCC, pigeon cytochrome C. They were obtained from commercial sources.
(§4) For the experiments of these Examples, several T cell hybridomas, which are specific for certain antigenic peptides, were used. The TPc9.1 T hybridoma is specific for pigeon cytochrome C 81-104 peptide presented on the murine class II MHC allele E^k. The TPc9.1 hybridoma responds heteroclitically to tobacco hornworm moth cytochrome c 82-103 on E^k. The 3A9 T hybridoma is specific for hen egg lysozyme 46-61 on A^k. The 9.30.B2 hybridoma is specific for hen egg lysozyme 11-25 on A^d, and the G28.C9 hybridoma is specific for hen egg lysozyme 106-116 on E^d. […]

[2] = molecular target: T1, murine E^d MHC class II allele (Mus musculus, UniProt P01904+P01915); assay: simultaneous assay, E^d allele (A20 APC, G28.C9 T hybridoma, HEL106-116; HT-2 [3H]TdR readout); type: cell-based; parameters: The A20 and CH27 B cell lymphoma lines express H-2^d and H-2^k alleles, respectively; endogenous in cells; host or cells: A20 B cell lymphoma (mitomycin C-treated or paraformaldehyde-fixed); settings: for Times Baseline Response, Ed: Table 3
T1 sequence (P01904 26-255): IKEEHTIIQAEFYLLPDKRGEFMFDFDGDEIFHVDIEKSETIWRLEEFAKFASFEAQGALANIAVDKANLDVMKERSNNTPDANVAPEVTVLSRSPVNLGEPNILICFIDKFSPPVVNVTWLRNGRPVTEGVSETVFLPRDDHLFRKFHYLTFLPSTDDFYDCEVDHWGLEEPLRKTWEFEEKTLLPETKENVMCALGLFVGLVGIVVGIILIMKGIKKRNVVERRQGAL
T1 sequence (P01915 27-264 limits assumed): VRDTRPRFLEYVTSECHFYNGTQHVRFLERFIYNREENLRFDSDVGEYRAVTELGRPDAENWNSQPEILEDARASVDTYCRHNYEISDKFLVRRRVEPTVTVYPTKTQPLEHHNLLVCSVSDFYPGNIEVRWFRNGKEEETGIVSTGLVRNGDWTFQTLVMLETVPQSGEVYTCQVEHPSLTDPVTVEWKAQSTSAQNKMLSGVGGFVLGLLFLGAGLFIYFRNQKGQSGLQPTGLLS
Protocol: as §1, §2, §3, §4

HLA-DR1 molecules = assay: release of biotin-labeled hMBP(90-102) from HLA-DR1 without unlabeled antigenic peptide (assay I); type: binding, human; settings: for Relative Release: Table 36, AE101 series compound 64 μM, fraction of o.d. of positive control (PBS only = 1.0; negative control = 0.0)
[3] = molecular target: soluble HLA-DR1 (HLA-DR alpha truncated after Asn192 with a C-terminal nine amino acid HA epitope tail; HLA-DR1 beta truncated after Lys198), made in Baculovirus-infected insect cells (human); assay: release ELISA: soluble HLA-DR1 tethered by 12CA5 and preloaded with biotin-hMBP(90-102); AE peptide 64 uM, 1 h 37 C, no unlabeled peptide; biotin still bound read by avidin-HRP (1.0 = PBS control, 0.0 = no DR1; low value = released)
[4] = Table 1, AE peptide 16 μM (second value), 0.075 μM THMCC82-103, supernatant 1:2
[5] = Table 1, AE peptide 64 μM (first value), 0.075 μM THMCC82-103, supernatant 1:2
[6] = Table 1, AE peptide 16 μM (second value), 0.4 μM HEL106-116, supernatant 1:4
[7] = Table 1, AE peptide 64 μM (first value), 0.4 μM HEL106-116, supernatant 1:4
[8] = Table 6, AE peptide 64 μM, supernatant 1:4, reduced by a factor of 5
[9] = Table 6, AE peptide 64 μM, supernatant 1:4
[10] = Table 5, AE peptide 64 μM, supernatant 1:4, normalized to E^d by a factor of 10
[11] = Table 5, AE peptide 64 μM, supernatant 1:4
[12] = Table 9, AE peptide 64 μM, supernatant 1:4, normalized by a factor of 5
[13] = Table 9, AE peptide 64 μM, supernatant 1:4
[14] = AE peptide 64 μM, supernatant 1:4

Molecule: SAKPVSQMR [AE105]
- Times Baseline Response, E^k [1, 4]: 0.8
- Times Baseline Response, E^k [1, 5]: 0.7
- Times Baseline Response, E^d [2, 6]: 1.1
- Times Baseline Response, E^d [2, 7]: 4.5
- Relative Release (HLA-DR1 molecules): 0.16

Molecule: KLPKSAKPVSQMR [AE103]
- Times Baseline Response, E^k [1, 4]: 0.7, 0.7
- Times Baseline Response, E^k [1, 5]: 0.7, 0.7
- Times Baseline Response, E^d [2, 6]: 1.3
- Times Baseline Response, E^d [2, 7]: 3.4
- Relative Release (HLA-DR1 molecules): 0.01

Molecule: Ac-lrmklpk-NH2 [AE170]
- Times Baseline Response, E^k ([1]; Table 12, AE peptide 1 μM (fourth value), supernatant 1:4): 1.7
- Times Baseline Response, E^k ([1]; Table 12, AE peptide 4 μM (third value), supernatant 1:4): 2.1
- Times Baseline Response, E^k ([1]; Table 12, AE peptide 16 μM (second value), supernatant 1:4): 2.4
- Times Baseline Response, E^k ([1]; Table 12, AE peptide 64 μM (first value), supernatant 1:4): 2.8
- Times Baseline Response, E^d ([2]; Table 12, AE peptide 1 μM (fourth value), supernatant 1:2): 1.3
- Times Baseline Response, E^d ([2]; Table 12, AE peptide 4 μM (third value), supernatant 1:2): 1.3
- Times Baseline Response, E^d ([2]; Table 12, AE peptide 16 μM (second value), supernatant 1:2): 1.2
- Times Baseline Response, E^d ([2]; Table 12, AE peptide 64 μM (first value), supernatant 1:2): 1.1
- activity in simultaneous assay on E^d and E^k, in words ([2]; Tables 12 and 18): inactive

Molecule: YRMKLPKSAKPVSQ [AE106]
- Times Baseline Response, E^k [1, 4]: 0.9
- Times Baseline Response, E^k [1, 5]: 2.0
- Times Baseline Response, E^d [2, 6]: 4.4
- Times Baseline Response, E^d [2, 7]: 16.9
- release of hMBP(90-102) from HLA-DR1 (HLA-DR1 molecules; AE peptide at 125 nM, additional experiments): completely release
- Relative Release (HLA-DR1 molecules): −0.12

Molecule: Ac-LRM[Cit]LPK-NH2 [AE211]
- Times Baseline Response, E^k [1, 8]: 3.4
- Times Baseline Response, E^d [2, 9]: 1.7

Molecule: PKSAKPVSQMR [AE104]
- Times Baseline Response, E^k [1, 4]: 1.1
- Times Baseline Response, E^k [1, 5]: 0.8
- Times Baseline Response, E^d [2, 6]: 0.9
- Times Baseline Response, E^d [2, 7]: 2.6
- Relative Release (HLA-DR1 molecules): 0.02

Molecule: Ac-LRM HArg LPK-NH2 [AE212]
- Times Baseline Response, E^k [1, 8]: 15.4
- Times Baseline Response, E^d [2, 9]: 13.2

Molecule: Ac-LRM E LPK-NH2 [AE215]
- Times Baseline Response, E^k [1, 8]: 0.4
- Times Baseline Response, E^d [2, 9]: 0.7

Molecule: Ac-LR E KLPK-NH2 [AE201]
- Times Baseline Response, E^k [1, 10]: 3.4
- Times Baseline Response, E^d [2, 11]: 7.0

Molecule: Ac-LRMKLP[Orn]-NH2 [AE240]
- Times Baseline Response, E^k [1, 12]: 11.5
- Times Baseline Response, E^d [2, 13]: 9.8

Molecule: Ac-YRMKLPKSA-NH2 [AE111]
- Times Baseline Response, E^k [1, 4]: 2.0
- Times Baseline Response, E^k [1, 5]: 7.2
- Times Baseline Response, E^d [2, 6]: 18.8
- Times Baseline Response, E^d [2, 7]: 39.2

Molecule: Ac-D RMKLPK-NH2 [AE185]
- Times Baseline Response, Ek [1, 14]: 0.9
- Times Baseline Response, Ed [2, 14]: 1.2

Molecule: Ac-LRMKLP L-NH2 [AE251]
- Times Baseline Response, E^k [1, 12]: 18.6
- Times Baseline Response, E^d [2, 13]: 11.9

Molecule: Ac-LR H KLPK-NH2 [AE198]
- Times Baseline Response, E^k [1, 10]: 18.7
- Times Baseline Response, E^d [2, 11]: 16.1

Molecule: Ac-LR F KLPK-NH2 [AE204]
- Times Baseline Response, E^k [1, 10]: 31.8
- Times Baseline Response, E^d [2, 11]: 14.0

Molecule: Ac-LRM H LPK-NH2 [AE213]
- Times Baseline Response, E^k [1, 8]: 5.7
- Times Baseline Response, E^d [2, 9]: 6.1

Molecule: Ac-LRM[Orn]LPK-NH2 [AE210]
- Times Baseline Response, E^k [1, 8]: 9.0
- Times Baseline Response, E^d [2, 9]: 6.6

Molecule: Ac-YRAKLPKSAK-NH2 [AE122]
- Times Baseline Response, E^k ([1]; Table 10, AE peptide 64 μM, supernatant 1:2 (first value)): 46.2
- Times Baseline Response, E^k ([1]; Table 10, AE peptide 64 μM, supernatant 1:4 (second value)): 41.4
- Times Baseline Response, E^d ([2]; Table 10, AE peptide 16 μM (second value), supernatant 1:2): 9.2
- Times Baseline Response, E^d ([2]; Table 10, AE peptide 64 μM (first value), supernatant 1:2): 16.2

Molecule: Ac-F RMKLPK-NH2 [AE189]
- Times Baseline Response, Ek [1, 14]: 18.2
- Times Baseline Response, Ed [2, 14]: 12.1

Molecule: Ac-LR[Cit]KLPK-NH2 [AE196]
- Times Baseline Response, E^k [1, 10]: 18.4
- Times Baseline Response, E^d [2, 11]: 13.6

Molecule: Ac-LR D KLPK-NH2 [AE200]
- Times Baseline Response, E^k [1, 10]: 3.9
- Times Baseline Response, E^d [2, 11]: 8.3

Molecule: Ac-H RMKLPK-NH2 [AE183]
- Times Baseline Response, Ek [1, 14]: 17.3
- Times Baseline Response, Ed [2, 14]: 10.3

Molecule: Ac-Q RMKLPK-NH2 [AE188]
- Times Baseline Response, Ek [1, 14]: 7.7
- Times Baseline Response, Ed [2, 14]: 8.8

Molecule: Ac-LRMKLP Y-NH2 [AE249]
- Times Baseline Response, E^k [1, 12]: 17.1
- Times Baseline Response, E^d [2, 13]: 12.2

Molecule: Ac-LRM F LPK-NH2 [AE218]
- Times Baseline Response, E^k [1, 8]: 9.0
- Times Baseline Response, E^d [2, 9]: 3.1

Molecule: Ac-LRMKLP H-NH2 [AE243]
- Times Baseline Response, E^k [1, 12]: 14.5
- Times Baseline Response, E^d [2, 13]: 7.2

Molecule: YRMKLPKSAKPVSQ [AE106]
- Relative Release (fraction of positive control o.d.) [3]: -0.12
